In patent US20240093191A1, “COMPOSITIONS AND METHODS FOR TREATING DISEASE ASSOCIATED WITH DUX4 OVEREXPRESSION” (RESEARCH INSTITUTE AT NATIONWIDE CHILDREN'S HOSPITAL, priority 2021, published 2024):

How the values were obtained:
TRIM43 [1] = assay: ddPCR of TRIM43 in drug-treated FSHD myotubes; format: cell-based, human; conditions: for TRIM43 (% decrease): 20 μM; for reduction of TRIM43 expression: 18A FSHD myotubes, 40 μM, added 4th day, collected 5th day of differentiation
Description: (§1) Primary Cell Culture. 15A, 17A sand 18A FSHD human myoblasts and 15V control human myoblasts were provided by the UMMS Wellstone Center for FSHD and have been previously characterized [Jones et al., Hum. Mol. Genet. 21: 4419-4430 (2012)]. Previously immortalized 15A cell lines have a single 4qA permissive allele. […] 15V cell lines have two 4qB non-permissive alleles. Cells were propagated by feeding them every two days with new LHCN medium [4:1 DMEM:Medium 199 (Gibco) supplemented with 15% characterized FBS (Corning), 0.02 M HEPES (Thermo Fisher), 0.03 μg/mL ZnSO4 (Honeywell Fluka), 1.4 μg/mL Vitamin B12 (Sigma-Aldrich), 0.055 μg/mL dexamethasone (Sigma-Aldrich), 1% antibiotics/antimycotics (Gibco), 2.5 ng/mL hepatocyte growth factor (Millipore) and 10 ng/mL basic fibroblast growth factor (Millipore)]. For differentiation, myoblasts were switched to a differentiation medium [4:1 DMEM: Medium 199 (Gibco) supplemented with 15% KnockOut Serum Replacement (ThermoFisher Scientific), 2 mM L-glutamine (Gibco), 1% antibiotics/antimycotics (Gibco), 1 mM sodium pyruvate (Gibco) and 20 mM HEPES (ThermoFisher Scientific)] when cells were at >90% confluency. Before adding differentiation medium, cells were washed with PBS (Gibco). Cells were seeded with new differentiation medium every three days for up to 7 days. To detach cells, TrypLE™ Express, phenol red (ThermoFisher Scientific) was used.
(§2) Digital Droplet PCR (ddPCR). For mir-675 and mi405 constructs, RNA extraction was carried out as described for QPCR above. For cDNA synthesis, the TaqMan advanced cDNA synthesis kit (Thermo Fisher) was used and cDNA was prepared by following manufacturer's instructions. ddPCR was carried out using 1× ddPCR Supermix for probes (No dUTP) (Bio-Rad), 1× commercially available mir-675 advanced TaqMan probe, or a custom made mi405 advanced TaqMan probe (ThermoFisher) and 50 ng of cDNA. For DUX4 cDNA synthesis, the High-Capacity cDNA Reverse Transcription Kit (Applied Biosystems) was used according to manufacturer's instructions. Within the same cDNA reaction, 1×RT random hexamer primers and 25 pmoles of the Oligo(dT) primer were used to generate cDNA for DUX4 and DUX4-responsive biomarkers and for mouse Rpl13A, used as a reference gene. To quantify DUX4, the ddPCR reaction mixture (20 μL) contained 1× ddPCR Evagreen Supermix (Bio-Rad), 1 μM of forward and reverse DUX4 primers (Sharma et al., J Genet Syndr Gene Ther 2016 August; 7(4):303. doi: 10.4172/2157-7412.1000303. Epub 2016 Aug. 8), and 50 ng of cDNA. To quantify Rpl13A and DUX4-responsive biomarkers (Trim36 and Wfdc3), the 1× ddPCR Supermix for probes (No dUTP) and TaqMan specific probes were used for each of the genes. Droplets were generated using the Automatic Droplet generator QX200 AutoDG (Bio-Rad), the reactions were amplified in a C1000 Touch™ Thermal Cycler with 96-Deep Well Reaction Module (Bio-Rad). Cycling conditions were set up following the QX200 ddPCR Evagreen Supermix protocol. All assays are compatible with an annealing temperature of 58° C. Droplets were then read using the QX200 droplet reader (Bio-Rad). Finally, data were analyzed using the QuantaSoft analysis software (Bio-Rad). For quantification, each reaction of 20 μL was estimated to give at least 10,000 acceptable droplets.
(§3) Next, the effects of the three treatment regimens were tested on the expression of endogenous mir-675-5p, DUX4 and TRIM43 in 15A, 17A and 18A FSHD differentiated muscle cell lines (myotubes) (FIG. 29 and Table 4). […] Mol. Genet. 21: 4419-30 (2012)]. In FIG. 29, β-estradiol, medroxyprogesterone acetate (MPA) and melatonin increased mir-675 expression and reduced the expression of DUX4 and the DUX4-induced biomarker TRIM43 in three FSHD affected myotube lines. Droplet digital PCR (ddPCR) was used to measure mir-675-5p, DUX4 and TRIM43 levels in 15A (A), 17A (B) and 18A (C) FSHD affected myotubes five days after differentiation. […]

mir-675-5p [2] = assay: ddPCR of mir-675-5p in drug-treated DUX4-transfected HEK293 cells; format: cell-based, human; conditions: vs ethanol vehicle
Experimental: as §2
(§4) Three small molecule candidates (β-estradiol, a combination of β-estradiol+medroxyprogesterone acetate (MPA), and melatonin) were tested for their ability to upregulate mir-675-5p in HEK293 cells and in human myotubes. HEK293 cells normally express minimal amounts of mir-675. […] 24 hours after treatment, mir-675-5p expression was measured by Droplet Digital PCR (ddPCR).
In FIG. 28, β-estradiol, medroxyprogesterone acetate (MPA) and melatonin increased mir-675 expression and reduced the expression of DUX4 and DUX4-induced biomarker TRIM43 in HEK293 cells. […] The effects of these drugs were evaluated by comparison to ethanol (vehicle)-treated cells. […] The quantification (percent change) of gene expression from HEK293 cells treated with β-estradiol, β-estradiol+MPA, or melatonin was measured using droplet digital PCR (ddPCR) and is reported in Table 3 set out below. […]

DUX4 [3] = assay: ddPCR of transfected DUX4 in drug-treated HEK293 cells; format: cell-based, human; conditions: vs ethanol vehicle
Experimental: as §2, with “Cycling conditions were set up following the QX200 ddPCR Evagreen Supermix protocol. All assays are compatible with an annealing temperature of 58° C.” left out
as §4, with “myotubes.” for “myotubes. HEK293 cells normally express minimal amounts of mir-675.”, “(ddPCR). […]” for “(ddPCR).”

mir-675-5p [4] = assay: ddPCR of mir-675-5p in drug-treated FSHD myotubes; format: cell-based, human; conditions: 20 μM
Description: as §1, §2, §3

DUX4 [5] = assay: ddPCR of DUX4 in drug-treated FSHD myotubes; format: cell-based, human; conditions: for DUX4 (% decrease): 20 μM
Description: as §1, §2, §3

TRIM43 [6] = assay: ddPCR of TRIM43 in drug-treated DUX4-transfected HEK293 cells; format: cell-based, human; conditions: for TRIM43 (% decrease): vs ethanol vehicle
Experimental: as §2
Three small molecule candidates (β-estradiol, a combination of β-estradiol+medroxyprogesterone acetate (MPA), and melatonin) were tested for their ability to upregulate mir-675-5p in HEK293 cells and in human myotubes. HEK293 cells normally express minimal amounts of mir-675. HEK293 cells were treated with (1) 20 μM β-estradiol alone; (2) 10 μM or 20 μM β-estradiol+MPA; or (3) 20 μM or 40 μM melatonin. 24 hours after treatment, mir-675-5p expression was measured by Droplet Digital PCR (ddPCR).
In FIG. 28, β-estradiol, medroxyprogesterone acetate (MPA) and melatonin increased mir-675 expression and reduced the expression of DUX4 and DUX4-induced biomarker TRIM43 in HEK293 cells. Droplet Digital PCR (ddPCR) was carried out to measure mir-675-5p, DUX4 and TRIM43 levels. HEK293 cells were transfected with DUX4 and were treated with two drugs individually (i.e., β-estradiol and melatonin) or with a combination of β-estradiol and MPA at 10, 20 or 40 μM at the time of transfection. The effects of these drugs were evaluated by comparison to ethanol (vehicle)-treated cells. Numbers correspond to n=3 independent experiments (ANOVA, P<0.0001). The quantification (percent change) of gene expression from HEK293 cells treated with β-estradiol, β-estradiol+MPA, or melatonin was measured using droplet digital PCR (ddPCR) and is reported in Table 3 set out below. Anti-mir-675 is an antagomiR targeting the mature sequence of mir-675-5p, inhibiting its function as inhibitor of DUX4 gene expression. CMV.DUX4-mir-675Res is an expression plasmid encoding a DUX4 mutant sequence. […]

mir-675 = conditions: published gene expression studies; cited from earlier work
ZSCAN4 = assay: ddPCR of ZSCAN4 in drug-treated 18A FSHD myotubes; format: cell-based, human; conditions: 40 μM, added 4th day, collected 5th day of differentiation
Experimental: 18A FSHD affected muscles cell lines were treated with increasing concentrations of Pyrazinamide or Sorafenib at the 4th day of differentiation into myotubes. Cells were collected at the 5th day of differentiation. RNA was extracted and ddPCR gene expression analysis on DUX4, TRIM43 and ZSCAN4 was carried out. As a result, 40 μM of Pyrazinamide reduced TRIM43 and ZSCAN4 expression by 35±7% (ANOVA, P=0.0378, N=3 independent experiments) and 42±6% (ANOVA, P=0.0043, N=3 independent experiments), respectively (FIG. 35). Sorafenib reduced DUX4, TRIM43 and ZSCAN4 expression in a dose dependent manner, where it reached maximum inhibition when used at a concentration of 40 μM. At the latter, Sorafenib reduced DUX4, TRIM43 and ZSCAN4 expression by 40±10% (ANOVA, P=0.0486, N=3 independent experiments), 70±4% (ANOVA, P=0.0003, N=3 independent experiments) and 68±3% (ANOVA, P=0.0001, N=3 independent experiments), respectively (FIG. 35).

COc1ccc2[nH]cc(CCNC(C)=O)c2c1 [Melatonin, melatonin]
TRIM43 (% decrease) (TRIM43 [1]; 15A 5DD myotubes, N = 6): 75 ± 45 | *, % | TRIM43 (% decrease) (TRIM43 [1]; 17A 5DD myotubes, N = 3): 30 ± 12 | *, % | TRIM43 (% decrease) (TRIM43 [1]; 18A 5DD myotubes, N = 3): 70 + 15 | ***, % | mir-675-5p (% increase) (mir-675-5p [2]; 20 μM): 229 ± 53% | mir-675-5p (% increase) (mir-675-5p [2]; 40 μM): 246 ± 53% | DUX4 (% decrease) (DUX4 [3]; 20 μM): 90 ± 01% | DUX4 (% decrease) (DUX4 [3]; 40 μM): 93 ± 01% | mir-675-5p (% increase) (mir-675-5p [4]; 15A 5DD myotubes, N = 6): 44 ± 16 | *, % | mir-675-5p (% increase) (mir-675-5p [4]; 17A 5DD myotubes, N = 3): 48 ± 09 | **, % | mir-675-5p (% increase) (mir-675-5p [4]; 18A 5DD myotubes, N = 3): 154 ± 59 | *, % | DUX4 (% decrease) (DUX4 [5]; 15A 5DD myotubes, N = 6): 88 ± 40 | **, % | DUX4 (% decrease) (DUX4 [5]; 17A 5DD myotubes, N = 3): 55 ± 09 | *, % | DUX4 (% decrease) (DUX4 [5]; 18A 5DD myotubes, N = 3): 38 ± 17 | *, % | +anti-mir-675 (300 nM) TRIM43 (% increase) (TRIM43 [6]; 20 μM, HEK293, co-transfected anti-mir-675 300 nM): 21 ± 01% | TRIM43 (% decrease) (TRIM43 [6]; 20 μM, HEK293): 52 ± 01% | TRIM43 (% decrease) (TRIM43 [6]; 40 μM, HEK293): 58 ± 01% | +CMV.DUX4-mir-675Res TRIM43 (% decrease) (TRIM43 [6]; 40 μM, HEK293 transfected with CMV.DUX4-mir-675Res): 0.1 ± 16% | mir-675 expression (mir-675): mir-675 was induced

NC(=O)c1cnccn1 [Pyrazinamide, pyrazine-2-carboxamide]
reduction of TRIM43 expression (TRIM43 [1]): 35±7% | mir-675 expression (mir-675): upregulated mir-675 expression | reduction of ZSCAN4 expression (ZSCAN4): 42±6%

CNC(=O)c1cc(Oc2ccc(NC(=O)Nc3ccc(Cl)c(C(F)(F)F)c3)cc2)ccn1 [Sorafenib, 4-[4-[[4-chloro-3-(trifluoromethyl)phenyl]carbamoylamino]phenoxy]-N-methylpyridine-2-carboxamide]
reduction of TRIM43 expression (TRIM43 [1]): 70±4% | reduction of DUX4 expression (DUX4 [5]; 18A FSHD myotubes, 40 μM, added 4th day, collected 5th day of differentiation): 40±10% | mir-675 expression (mir-675): upregulated mir-675 expression | reduction of ZSCAN4 expression (ZSCAN4): 68±3%
